A short description of series [1]: Lipophilicity, LogD of compound at pH 2.6 by chromatography. Format: physicochemical. The following applies: buffer.
Series [2] is described as follows: Lipophilicity, LogD of compound at pH 10.5 by chromatography. Format: physicochemical. The following applies: buffer.
Series [3] in a line: Lipophilicity, LogD of compound at pH 7.4 by chromatography. The class given is physicochemical. The following applies: buffer.
Series [4] is described as follows: Toxicity in male BALB/c mouse administered intraperitoneally measured for 48 hrs. The following applies: in vivo, route ip.
A short description of series [5]: in vitro. The note with it: human, liver microsomes. In general terms: Microsomes from liver hold many membrane-bound enzymes, among them those of drug oxidation.
A short description of series [6]: AUC (0 to 120 mins) in plasma of male Balb/c mouse at 15 mg/kg, ip measured up to 120 mins. Format: ADME, organism-based.
Series [7] can be described thus: Tmax in plasma of male Balb/c mouse at 15 mg/kg, ip measured up to 120 mins. Format: ADME, organism-based.
The nature of the next series: in vivo. The note with it: male, Balb/c, mouse, brain/plasma, ip, 15 mg/kg.
The nature of series [8]: Drug uptake in plasma of male BALB/c mouse at 15 mg/kg, ip measured after 48 hrs. The note with it: in vivo. The class given is ADME, organism-based.
A short description of series [9]: AUC (infinity) in plasma of male Balb/c mouse at 15 mg/kg, ip measured up to 120 mins. The class given is ADME, organism-based.
The conditions of series [10]: human, microsomes, 0.75 h, 3 µM.
Series [11] can be described thus: Cmax in plasma of male Balb/c mouse at 15 mg/kg, ip measured up to 120 mins. Format: ADME, organism-based.
Series [12] can be described thus: in vitro. The note with it: human, liver microsomes. This is another data set of the same source.
Series [13] in a line: Cmax in brain of male Balb/c mouse at 15 mg/kg, ip measured up to 120 mins. Format: ADME, organism-based.
The nature of series [14]: Drug uptake in brain of male BALB/c mouse at 15 mg/kg, ip measured after 48 hrs. The class given is ADME, organism-based. The following applies: in vivo.
Series [15] is described as follows: Tmax in brain of male Balb/c mouse at 15 mg/kg, ip measured up to 120 mins. Format: ADME, organism-based.
Series [16] in a line: AUC (infinity) in brain of male Balb/c mouse at 15 mg/kg, ip measured up to 120 mins. Format: ADME, organism-based.
Series [17] in a line: AUC (0 to 120 mins) in brain of male Balb/c mouse at 15 mg/kg, ip measured up to 120 mins. The class given is ADME, organism-based.

For orientation: chromatographic logD means lipophilicity estimated from chromatographic retention. Higher therefore signals higher lipophilicity. Broadly, the NOAEL is the highest dose or exposure tested at which no adverse effect was seen. What is called microsomal CLint is the rate of metabolic loss divided by the concentration. Usually AUC(0-t) stands for the area under the concentration-time curve up to a stated or last time point. By Tmax is commonly meant the time from dosing to the highest level. Usually Kp stands for the ratio of the level in a tissue or fluid to that in plasma or blood. By AUC(0-inf) is commonly meant total exposure, with the tail of the curve extrapolated. High values mean more exposure, low ones less exposure. A word on the Cmax: it is the maximum level reached in the sampled fluid or tissue. For orientation: half-life means how long it takes for the measured level to halve.

The compound `COc1ncc(-c2ccc3nc4c(c(N)c3c2)CCCC4)cn1` had a CHI of 19.1. The compound further had a chromatographic logD in series [1] of 1.26. Moreover, the chromatographic logD in [2] amounted to 3.2. The same compound gave a chromatographic logD in series [3] of 2.94.
As to `Cc1csc(-c2ccc3nc4c(c(N)c3c2)CCCC4)c1`, the CHI was found to be 33. The same compound had an NOAEL at 48 h in series [4] of 15 mg/kg. In addition, the chromatographic logD in [1] was 2.12. Besides, in the series “in vitro [5]”, the microsomal CLint at 0.75 h, 3 µM turned out to be 224 µL/min/mg. The same compound gave an AUC(0-t) at 2 h in [6] of 0.775 µM·h. The time to peak (Tmax) in series [7] is 15 min. The compound further showed a partition ratio (Kp) at 2 h in “in vivo” of 2.36. Further, the Drug uptake result in series [8] is given as “Active”. Also, the AUC(0-inf) in series [9] is 1.08 µM·h. Also, in series [10], the Drug metabolism was 207 10^6No_unit. The compound also displayed a Cmax in series [11] of 945 nM. The half-life at 0.75 h, 3 µM in “in vitro [12]” came to 6.2 min. This compound had a Cmax in series [13] of 1470 nM. Besides, the Drug uptake entry in [14] is given as “Active”. The chromatographic logD in series [2] turned out to be 4.96. In series [15], the Tmax was 26.2 min. Further, the AUC(0-inf) in series [16] is 1.96 µM·h. For the same compound, the chromatographic logD in series [3] came out at 4.41. This compound had an AUC(0-t) at 2 h in series [17] of 1.83 µM·h.
Take `COc1ccc2nc3c(c(N)c2c1)CCCC3`: the intrinsic metabolic clearance (microsomal CLint) at 0.75 h, 3 µM in the series “in vitro [5]” was determined as 42.2 µL/min/mg. The Drug metabolism in series [10] is listed as 13.2 10^6No_unit. The compound further gave a half-life at 0.75 h, 3 µM in “in vitro [12]” of 32.8 min.
Compound `Nc1c2c(nc3ccc(-c4cncnc4)cc13)CCCC2` showed a CHI of 14.7. This compound displayed a chromatographic logD in [1] of 0.99. In “in vitro [5]”, this compound gave a microsomal CLint at 0.75 h, 3 µM of 14.8 µL/min/mg. Also, the Drug metabolism in series [10] was 200.7 10^6No_unit. For the same compound, the half-life at 0.75 h, 3 µM in “in vitro [12]” stood at 93.7 min. In series [2], this compound gave a chromatographic logD of 2.59. Moreover, the chromatographic logD in series [3] worked out at 2.73.
In turn, `Nc1c2c(nc3ccc(-c4ccc(Cl)s4)cc13)CCCC2` gave a CHI of 37.9. The same compound had a chromatographic logD in [1] of 2.28. The compound further showed a chromatographic logD in series [2] of 5.42. Moreover, the chromatographic logD in [3] is 4.86.
Take `Nc1c2c(nc3ccc(-c4ccncc4)cc13)CCCC2`: the CHI was 20.2. The chromatographic logD in series [1] was 0.47. Moreover, the microsomal CLint at 0.75 h, 3 µM in the series “in vitro [5]” is 46.2 µL/min/mg. Moreover, the Drug metabolism in [10] was 172.8 10^6No_unit. The same compound displayed a half-life at 0.75 h, 3 µM in the series “in vitro [12]” of 30 min. The compound further yielded a chromatographic logD in series [2] of 3.05. The compound also showed a chromatographic logD in [3] of 3.52.
`CN(C)c1cccc(-c2ccc3nc4c(c(N)c3c2)CCCC4)c1` came in with a CHI of 31.6. In addition, in [1], the chromatographic logD was found to be 1.4. Moreover, the chromatographic logD in [2] amounted to 4.86. Also, the chromatographic logD in series [3] was determined as 4.5.
`Nc1c2c(nc3ccc(-c4ccc(Cl)nc4)cc13)CCCC2` registered a CHI of 26. Moreover, the chromatographic logD in series [1] worked out at 1.6. In series [2], the chromatographic logD turned out to be 4.15. In series [3], the chromatographic logD is 3.65.
The compound `Nc1c2c(nc3ccc(Oc4ccccc4)cc13)CCCC2` registered a CHI of 27.6. The compound further yielded a chromatographic logD in [1] of 1.83. Further, the microsomal CLint at 0.75 h, 3 µM in “in vitro [5]” was 4.2 µL/min/mg. Besides, the Drug metabolism in [10] is 473.1 10^6No_unit. The compound also displayed a half-life at 0.75 h, 3 µM in “in vitro [12]” of 330 min. In addition, the chromatographic logD in series [2] stood at 4.49. The compound also displayed a chromatographic logD in series [3] of 3.82.
`COc1cc(-c2ccc3nc4c(c(N)c3c2)CCCC4)ccn1` registered a CHI of 25.3. This compound also registered a chromatographic logD in series [1] of 1.63. In addition, in series [2], the chromatographic logD was determined as 3.99. The same compound displayed a chromatographic logD in series [3] of 3.69.
As to `CC(C)COc1cccc(-c2ccc3nc4c(c(N)c3c2)CCCC4)c1`, the CHI is 38.8. The same compound registered a chromatographic logD in series [1] of 2.87. The chromatographic logD in series [2] stood at 5.79. The compound also returned a chromatographic logD in series [3] of 5.58.
Taken in the same sequence, the figures for `COc1ncc(-c2ccc3nc4c(c(N)c3c2)CCCC4)c(OC)n1` were 12.2, 0.65, 1.4 and 1.2.
`Nc1c2c(nc3ccc(-c4cccs4)cc13)CCCC2`: the CHI stood at 29.6. Also, the chromatographic logD in [1] was 1.77. Also, the chromatographic logD in series [2] stood at 4.54. The compound also displayed a chromatographic logD in series [3] of 3.85.
Compound `Nc1c2c(nc3ccc(-c4ccsc4)cc13)CCCC2` showed a CHI of 29.9. Further, the chromatographic logD in series [1] worked out at 1.78. In series [2], this compound gave a chromatographic logD of 4.48. Besides, in series [3], the chromatographic logD was found to be 3.8.
Compound `Cc1ccc(-c2ccc3nc4c(c(N)c3c2)CCCC4)o1` displayed a CHI of 29.5. This compound also registered a chromatographic logD in series [1] of 1.94. The microsomal CLint at 0.75 h, 3 µM in the series “in vitro [5]” is 239 µL/min/mg. The Drug metabolism in series [10] was 215.5 10^6No_unit. In addition, the half-life at 0.75 h, 3 µM in the series “in vitro [12]” is 5.8 min. Further, the chromatographic logD in series [2] came to 4.58. The chromatographic logD in series [3] was 4.06.
Turning to `Nc1c2c(nc3ccc(-c4ccc(F)nc4)cc13)CCCC2`, the CHI is 23. Besides, the chromatographic logD in series [1] worked out at 1.44. The compound also gave a chromatographic logD in series [2] of 3.81. In [3], this compound gave a chromatographic logD of 3.24.
`Nc1c2c(nc3ccc(-c4ccoc4)cc13)CCCC2`: the CHI is listed as 26.2. In addition, in [1], the chromatographic logD is 1.59. Besides, in series [2], the chromatographic logD stood at 4.08. This compound also showed a chromatographic logD in [3] of 3.43.
